What all share (assay type): cell-based
One assay has as its system HOP-92. The assay is described as follows: NCI COMPARE panel (SRB growth inhibition), HOP-92. As to conditions: Homo sapiens; Non-Small Cell Lung Cancer, HOP-92, 48 h. As to the method: (§1) The human tumor cell lines of the cancer screening panel are grown in RPMI 1640 medium containing 5% fetal bovine serum and 2 mM L-glutamine. For a typical screening experiment, cells are inoculated into 96 well microtiter plates in 100 µL at plating densities ranging from 5,000 to 40,000 cells/well depending on the doubling time of individual cell lines. After cell inoculation, the microtiter plates are incubated at 37° C., 5% CO2, 95% air and 100% relative humidity for 24 h prior to addition of experimental drugs.
(§2) After 24 h, two plates of each cell line are fixed in situ with TCA, to represent a measurement of the cell population for each cell line at the time of drug addition (Tz). Experimental drugs are solubilized in dimethyl sulfoxide at 400-fold the desired final maximum test concentration and stored frozen prior to use. […]
(§3) Following drug addition, the plates are incubated for an additional 48 h at 37° C., 5 % CO2, 95% air, and 100% relative humidity. […] Bound stain is subsequently solubilized with 10 mM trizma base, and the absorbance is read on an automated plate reader at a wavelength of 515 nm. […] Using the seven absorbance measurements [time zero, (Tz), control growth, (C), and test growth in the presence of drug at the five concentration levels (Ti)], the percentage growth is calculated at each of the drug concentrations levels. Percentage growth inhibition is calculated as: […]

The test system of another assay is NCI-H322M. The assay is described as follows: NCI COMPARE panel (SRB growth inhibition), NCI-H322M. As to conditions: Homo sapiens, Non-Small Cell Lung Cancer, 48 h. As to the method:
as §1, §2, §3

The next assay deals with COLO 205. The assay can be described thus: NCI COMPARE panel (SRB growth inhibition), COLO 205. Particulars: Homo sapiens; Colon Cancer, COLO 205, 48 h. As to the method:
as §1, §2, §3

The test system of another assay is CAKI-1. The assay can be described thus: NCI COMPARE panel (SRB growth inhibition), CAKI-1. As to conditions: Homo sapiens; Renal Cancer, CAKI-1, 48 h. On the procedure:
as §1, §2, §3

Another assay relates to NCI-H460. The assay can be described thus: NCI COMPARE panel (SRB growth inhibition), NCI-H460. As to conditions: Homo sapiens; Non-Small Cell Lung Cancer, NCI-H460, 48 h. On the procedure:
as §1, §2, §3

A further assay deals with HS 578T. The assay can be described thus: NCI COMPARE panel (SRB growth inhibition), HS 578T. As to conditions: Homo sapiens, Breast Cancer, 48 h. On the procedure: as §1, §2, §3
Another assay concerns SR. The assay is described as follows: NCI COMPARE panel (SRB growth inhibition), SR. As to conditions: Homo sapiens, Leukemia, 48 h. On the procedure: as §1, §2, §3
For another assay, the system named is OVCAR-3. The assay can be described thus: NCI COMPARE panel (SRB growth inhibition), OVCAR-3. Particulars: Homo sapiens; Ovarian Cancer, OVCAR-3, 48 h. As to the method: as §1, §2, §3
In the next assay the test system is T-47D. The assay can be described thus: NCI COMPARE panel (SRB growth inhibition), T-47D. As to conditions: Homo sapiens, T47D, Breast Cancer, 48 h. On the procedure: as §1, §2, §3
Another assay has as its system MDA-MB-231/ATCC. The assay is described as follows: NCI COMPARE panel (SRB growth inhibition), MDA-MB-231/ATCC. As to conditions: Homo sapiens, Breast Cancer, 48 h. As to the method: as §1, §2, §3

Turning to `CS(=O)(=O)Nc1cc(-c2ccc3ncc(C#N)c(Nc4cccc(Cl)c4F)c3c2)cnc1Cl` [Compound 10, N-[2-chloro-5-[4-(3-chloro-2-fluoro-anilino)-3-cyano-6-quinolyl]-3-pyridyl]methanesulfonamide], the GI50 with HOP-92 is at most 75 nM; in the assay on NCI-H322M it was over 250 nM; in the assay with COLO 205, 125 to 250 nM; with CAKI-1, at most 75 nM; in the assay with NCI-H460, over 250 nM; in the assay with HS 578T, at most 75 nM. The 50% growth inhibitory concentration (GI50) in the assay on SR was at most 75 nM; in the assay on OVCAR-3 it was over 250 nM; with T-47D, 125 to 250 nM; in the assay with MDA-MB-231/ATCC, over 250 nM.

Turning to `CS(=O)(=O)Nc1cc(-c2ccc3ncnc(Nc4cccc(Cl)c4F)c3c2)cnc1Cl` [Compound 6, N-[2-chloro-5-[4-(3-chloro-2-fluoro-anilino)quinazolin-6-yl]-3-pyridyl] methanesulfonamide], the GI50 in the assay with HOP-92 is at most 75 nM; with NCI-H322M, 125 to 250 nM; in the assay on COLO 205 it was 125 to 250 nM; in the assay with CAKI-1, at most 75 nM; with NCI-H460 it was over 250 nM; with HS 578T it was at most 75 nM. Also, the 50% growth inhibitory concentration (GI50) is over 250 nM in the assay with SR, 75 to 125 nM in the assay with OVCAR-3, at most 75 nM in the assay on T-47D and 125 to 250 nM with MDA-MB-231/ATCC.

What is called GI50 is the concentration at which growth is held to half of that of the control. Low values mean more potent growth inhibition, high ones less potent growth inhibition.

Source of the values: patent US20230133958A1, “COMPOUNDS USEFUL IN MODULATING EGFR AND PI3K” (Mekanistic Therapeutics LLC, priority 2021, published 2023).
